In brackets after ≈: the same amount, converted by molar mass.
Assays:
PBP4 = conditions: cited from earlier work
CA- and HA-MRSA strains = assay: Synergy assay, cefuroxime with two-fold dilutions of oxacillin; format: cell-based, Staphylococcus aureus; conditions: in combination with two-fold dilutions of oxacillin
Description: (§1) Minimum inhibitory concentrations and minimum bactericidal concentrations (MIC and MBC, respectively) were determined for each isolate in triplicate by microdilution techniques with an inoculum of 5×10^5 CFU/ml according to the Clinical and Laboratory Standards Institute guidelines. Aliquots (5 μl) from clear wells were plated onto TSA drug-free plates for the determination of MBCs, followed by incubation at 37° C. for 24 and 48 hours. For the mutant strains, each one of the three clones was tested. MIC data were reported as median values from at least three independent experiments for each antibiotic. Also, strains containing pEPSA5-based plasmids were tested with and without xylose induction, but chloramphenicol was not added to avoid interference with beta-lactam resistance evaluation. […] The correct inocula were confirmed by plating serial dilutions on agar.

MW2 ex Δpbp4 = assay: MIC by microdilution (CLSI); format: cell-based, Staphylococcus aureus; conditions: Staphylococcus aureus, read-out: MICs
Excerpt: (§2) The present invention was described based on a series of experiments examining the biological basis for CA-MRSA strains versus HA-MRSA strains, focusing on the role of PBPs in CA-MRSA and generally in β-lactam resistance. Experiments were first performed using mutants of various PBPs. In-frame deletion mutants of the genes encoding PBP3 (MW1504) and PBP4 (MW0604), pbp3 and pbp4 respectively, were generated in the CA-MRSA strain MW2 and in HA-MRSA strain COL using the temperature-sensitive allelic replacement vector pMAD (Arnaud, M. et al. 2004. Appl. Environ. Microbiol. 70:6887-6891). PBP4 was also deleted in the HA-MRSA strains Mu50 and N315 and in the CA-MRSA strain USA300. […] Minimum inhibitory concentrations (MICs) were determined according to the Clinical and Laboratory Standards Institute and are a standard method for defining antibiotic efficacy against different organisms. Bacteria, grown to an OD650=1, were added to cation-supplemented Mueller Hinton broth (CSMHB) to achieve a final concentration of 5×10^5 CFU/ml.
as §1

MW2 Δpbp4 = assay: MIC by microdilution (CLSI); format: cell-based, Staphylococcus aureus
Excerpt: as §2, §1

N315 wild-type = assay: MIC by microdilution (CLSI); format: cell-based, Staphylococcus aureus; conditions: Staphylococcus aureus, read-out: MICs
Excerpt: as §2, §1

MW2 Δpbp3 = assay: MIC by microdilution (CLSI); format: cell-based, Staphylococcus aureus; conditions: Staphylococcus aureus, read-out: MICs
Excerpt: as §2, §1

MW2 Δpbp4::pbp4 = assay: MIC by microdilution (CLSI); format: cell-based, Staphylococcus aureus; conditions: Staphylococcus aureus, read-out: MICs
Excerpt: as §2, §1

USA300 Δpbp4 = assay: MIC by microdilution (CLSI); format: cell-based, Staphylococcus aureus
Excerpt: as §2, §1

MW2 Δpbp3/4 = assay: MIC by microdilution (CLSI); format: cell-based, Staphylococcus aureus; conditions: Staphylococcus aureus, read-out: MICs
Excerpt: as §2, §1

MW2 ex Δpbp3/4 = assay: MIC by microdilution (CLSI); format: cell-based, Staphylococcus aureus; conditions: Staphylococcus aureus, read-out: MICs
Excerpt: as §2, with “Experiments” for “The present invention was described based on a series of experiments examining the biological basis for CA-MRSA strains versus HA-MRSA strains, focusing on the role of PBPs in CA-MRSA and generally in β-lactam resistance. Experiments”
as §1

Mu50 wild-type = assay: MIC by microdilution (CLSI); format: cell-based, Staphylococcus aureus; conditions: Staphylococcus aureus, read-out: MICs
Excerpt: as §2, with “Experiments” for “The present invention was described based on a series of experiments examining the biological basis for CA-MRSA strains versus HA-MRSA strains, focusing on the role of PBPs in CA-MRSA and generally in β-lactam resistance. Experiments”
as §1

MW2 ex Δpbp3 = assay: MIC by microdilution (CLSI); format: cell-based; conditions: Staphylococcus aureus, read-out: MICs
Excerpt: as §2, with “Experiments” for “The present invention was described based on a series of experiments examining the biological basis for CA-MRSA strains versus HA-MRSA strains, focusing on the role of PBPs in CA-MRSA and generally in β-lactam resistance. Experiments”
as §1

[1] = test system: MW2 ex (MW2 cured of plasmid pMW2); assay: MIC by microdilution (CLSI); format: cell-based; conditions: Staphylococcus aureus, Table 1
Excerpt: as §2, with “Experiments” for “The present invention was described based on a series of experiments examining the biological basis for CA-MRSA strains versus HA-MRSA strains, focusing on the role of PBPs in CA-MRSA and generally in β-lactam resistance. Experiments”
as §1

USA300 wild-type = assay: MIC by microdilution (CLSI); format: cell-based, Staphylococcus aureus; conditions: Staphylococcus aureus, USA300, read-out: MICs
Excerpt: as §2
(§3) Although PBP4, similar to PBP2A, binds with low affinity to many β-lactams, PBP4 binds cefoxitin, a semi-synthetic β-lactam derived from cephamycin C, with high affinity (Nair, S. R. and C. E. Cherubin. 1978. Antimicrob. Agents Chemother. 14:866-875).
as §1

COL wild-type = assay: MIC by microdilution (CLSI); format: cell-based, Staphylococcus aureus; conditions: Staphylococcus aureus, read-out: MICs
Excerpt: as §2, §3, §1

MW2 (USA400) wild-type = assay: MIC by microdilution (CLSI); format: cell-based, Staphylococcus aureus; conditions: Staphylococcus aureus, USA400, read-out: MICs
Excerpt: as §2, §3, §1

Row | SMILES | affinity for PBP4 (PBP4) | effect on oxacillin MICs (CA- and HA-MRSA strains) | MIC (MW2 ex Δpbp4) [µg/mL] | MIC (MW2 Δpbp4; Staphylococcus aureus, read-out: MICs) [µg/mL] | reduction in MIC on loss of pbp4 (MW2 Δpbp4; {}) [fold] | MIC (N315 wild-type) [µg/mL] | MIC (MW2 Δpbp3) [µg/mL] | MIC (MW2 Δpbp4::pbp4) [µg/mL] | MIC (USA300 Δpbp4; Staphylococcus aureus, USA300, read-out: MICs) [µg/mL] | reduction in MIC on loss of pbp4 (USA300 Δpbp4; {}) [fold] | MIC (MW2 Δpbp3/4) [µg/mL] | MIC (MW2 ex Δpbp3/4) [µg/mL] | MIC (Mu50 wild-type) [µg/mL] | MIC (MW2 ex Δpbp3) [µg/mL] | MIC [1] [µg/mL] | MIC (USA300 wild-type) [µg/mL] | MIC (COL wild-type) [µg/mL] | MIC (MW2 (USA400) wild-type) [µg/mL]
1 | CN(C)CCn1nnnc1SCC1=C(C(=O)O)N2C(=O)[C@@H](NC(=O)Cc3csc(N)n3)[C@H]2SC1 [cefotiam] | no affinity | – | – | – | – | – | – | – | – | – | – | – | – | – | – | – | – | –
2 | CO/N=C(\C(=O)N[C@@H]1C(=O)N2C(C(=O)O)=C(COC(N)=O)CS[C@H]12)c1ccco1 [Cefuroxime, cefuroxime] | very low affinity | no effect whatsoever | – | – | – | – | – | – | – | – | – | – | – | – | – | – | – | –
3 | CCOc1ccc2ccccc2c1C(=O)N[C@@H]1C(=O)N2[C@@H]1SC(C)(C)[C@@H]2C(=O)O [NF, nafcillin] | – | – | 1 (≈ 2.41 µM) | 1 (≈ 2.41 µM) | 16 | 64 (≈ 154 µM) | 16 (≈ 38.6 µM) | 16 (≈ 38.6 µM) | 1 (≈ 2.41 µM) | 16 | 1 (≈ 2.41 µM) | 1 (≈ 2.41 µM) | 256 (≈ 618 µM) | 16 (≈ 38.6 µM) | 16 (≈ 38.6 µM) | 16 (≈ 38.6 µM) | 64 (≈ 154 µM) | 16 (≈ 38.6 µM)

— US9427468B2, “Compositions and methods for diagnosing and treating community-acquired methicillin-resistant Staphylococcus aureus” (priority 2007, dated 2016)
